Laboratory results from US8022225B2, “Triazole derivative” (Taisho Pharmaceutical Co., Ltd, priority 2004, dated 2011).

Experiments:
human Edg-1(S1P1) [1] = target: T1, human Edg-1(S1P1) (Homo sapiens, UniProt P21453); assay: Membrane system binding test: inhibition of [33P]-S1P binding to the membrane fraction of Edg-1(S1P1) gene transferred HEK-293 cells
T1 construct: expressed in transfected cells; host or cells: HEK-293
Method: The membrane fraction was obtained by treating the cells with a solubilizing buffer (1 mM Tris/HCl, pH 7.2) for 10 minutes on ice, centrifuging the system (1000×g, 5 min) to remove insoluble fractions, and then centrifuging the system (40000×g, 30 min, 4° C.). The resulting membrane fraction was dissolved in a binding buffer (20 mM Tris-HCl, pH 7.4, 100 mM NaCl, 15 mM NaF, 2 mM deoxypyridoxine, 4 mg/mL fatty acid-free BSA), and then [^33P]-S1P (produced by ARC, end concentration 0.1 nM) and a DMSO solution of the test compound (end concentration of the compound: 10^−5 M, end concentration of DMSO: 0.1%) were added, followed by stirring the mixture and subsequently treating it for 1 hour at 30° C. Using a harvester, the membrane fraction was harvested onto unifilter-96GF/C filter (produced by Perkin-Elmer). Then, the filter with the membrane fraction was washed 4 times with the binding buffer, and the filter was dried. To the filter, 25 μL Microscint 0 (produced by Perkin-Elmer) was added, and the assay system was measured for radioactivity by means of Top Count NXT (Packard). Based on the radioactivity, the amount (A) of binding of [^33P]-S1P to the membrane fraction upon addition of the compound was calculated.
The same procedure was performed in the absence of the test compound, and the amount (B) of binding of [^33P]-S1P was calculated. Moreover, the same procedure was performed in the absence of the test compound with the use of HEK-293 cells, to which the Edg-1(S1P1) gene had not been transferred, and the background amount (C) of binding of [^33P]-S1P was calculated.
The Edg-1(S1P1) binding inhibition rate of the compound, calculated from the following equation, is shown in […]

human Edg-1(S1P1) [2] = target: T1, human Edg-1(S1P1); assay: Cell system binding test: inhibition of [3H]-S1P binding to Edg-1(S1P1) gene transferred HEK-293 cells; settings: [3H]-S1P 10 nM
Method: Cells (1×10^5 cells/well) obtained as described above were seeded in poly-L-lysine-coated 96-well plates (Corning Incorporated), and then incubated in a 5% carbon dioxide gas incubator for 12 hours at 37° C. with the use of an MEM medium (Invitrogen Corporation) containing 100 U/mL of penicillin, 100 μg/mL of streptomycin, a 1% MEM nonessential amino acid solution, and 10% FCS. […] After the cells were washed twice with the buffer, they were solubilized with 100 μL of Opti Phase Supermix (produced by Perkin-Elmer), and measured for radioactivity by means of Micro Beta (produced by Perkin-Elmer).
Inhibition rate(%)=[1−(A−C)/(B−C)]×100

[3] = 10 μM compound, [33P]-S1P 0.1 nM, membrane fraction of Edg-1(S1P1) gene transferred HEK-293 cells, read-out: Membrane system binding test % inhibition (10 μM)
[4] = 10 μM compound, read-out: Cell system binding test % inhibition (10 μM)
[5] = test compound 10^-5 M, [33P]-S1P 0.1 nM, 1 hour at 30° C., HEK-293 membrane fraction, read-out: Edg-1(S1P1) binding inhibition rate (membrane system binding test)
[6] = test compound 10^-5 M, 1 hour, read-out: Edg-1(S1P1) binding inhibition rate (cell system binding test)

T1 sequence (P21453 whole entry): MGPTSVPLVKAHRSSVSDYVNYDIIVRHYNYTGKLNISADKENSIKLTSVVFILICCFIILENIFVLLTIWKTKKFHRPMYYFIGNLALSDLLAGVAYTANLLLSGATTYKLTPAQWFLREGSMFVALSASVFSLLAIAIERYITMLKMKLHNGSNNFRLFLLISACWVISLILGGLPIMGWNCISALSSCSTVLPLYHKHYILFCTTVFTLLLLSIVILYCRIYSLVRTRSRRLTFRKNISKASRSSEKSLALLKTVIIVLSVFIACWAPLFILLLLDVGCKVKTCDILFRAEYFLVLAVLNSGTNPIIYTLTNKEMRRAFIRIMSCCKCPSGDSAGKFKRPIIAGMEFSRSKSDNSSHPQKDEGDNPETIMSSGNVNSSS

SMILES | inhibition at 10 µM (human Edg-1(S1P1) [2]; [4]) [%] | inhibition at 10 µM (human Edg-1(S1P1) [1]; [5]) [%] | other results
CCCCCCCCSc1nnc([C@@H](C)NS(=O)(=O)c2ccc(Cl)cc2)n1CC [Compound 30] | 91.9 | – | inhibition at 10 µM (human Edg-1(S1P1) [1]; [3]): 100%
C=CCSc1nnc(CNS(=O)(=O)c2ccc(Cl)cc2)n1CC [Compound 104] | 99.5 | – | inhibition at 10 µM (human Edg-1(S1P1) [1]; [3]): 42.1%
CCn1c(OC)nnc1[C@@H](C)NS(=O)(=O)c1cc(F)c(F)cc1F [Compound 302] | 98.7 | – | inhibition at 10 µM (human Edg-1(S1P1) [1]; [3]): 57.7%
CCn1c(SCc2ccc(C(=O)OC)cc2)nnc1[C@@H](C)NS(=O)(=O)c1ccc(Cl)cc1 [Compound 58] | 91.9 | – | inhibition at 10 µM (human Edg-1(S1P1) [1]; [3]): 98.1%
CCn1c(OC)nnc1[C@@H](C)NS(=O)(=O)CCCCl [Compound 210] | 91.8 | – | inhibition at 10 µM (human Edg-1(S1P1) [1]; [3]): 46.6%
CCn1c(OC)nnc1[C@@H](C)NS(=O)(=O)c1cc(Br)c(Br)s1 [Compound 203] | 97.9 | – | inhibition at 10 µM (human Edg-1(S1P1) [1]; [3]): 88.3%
CCn1c(OC(C)C)nnc1[C@@H](C)NS(=O)(=O)c1ccc(C)c(C)c1 [Compound 462] | – | 92.1 | inhibition at 10 µM (human Edg-1(S1P1) [2]; [6]): 83.5%
C=CCSc1nnc(C(Cc2ccccc2)NS(=O)(=O)c2ccc(F)cc2)n1CC (centres unmarked) [Compound 169] | 67.5 | – | inhibition at 10 µM (human Edg-1(S1P1) [1]; [3]): 72.9%
COc1nnc([C@@H](Cc2ccccc2)NS(=O)(=O)c2ccc(Cl)c(Cl)c2)n1C [Compound 553] | – | 94.2 | –
CCn1c(OC2CCCC2)nnc1[C@@H](Cc1ccccc1)NS(=O)(=O)c1ccc(Cl)c(Cl)c1 [Compound 533] | – | 98.9 | –
CCn1c(OC2CCCCC2)nnc1[C@@H](Cc1ccccc1)NS(=O)(=O)c1ccc(Cl)c(Cl)c1 [Compound 534] | – | 98.3 | –
CCn1c(OCCCOC)nnc1[C@@H](Cc1ccccc1)NS(=O)(=O)c1ccc(Cl)c(Cl)c1 [Compound 535] | – | 102 | –
CCn1c(OCC(F)(F)F)nnc1C(Cc1ccccc1)NS(=O)(=O)c1ccc(Cl)c(Cl)c1 (centres unmarked) [Compound 530] | – | 97.2 | –
CCn1c(OCc2ccccc2)nnc1[C@@H](Cc1ccccc1)NS(=O)(=O)c1ccc(Cl)c(Cl)c1 [Compound 546] | – | 96.9 | –
CCCOc1nnc([C@@H](Cc2ccc(OC)cc2)NS(=O)(=O)c2ccc(Cl)c(Cl)c2)n1CC [Compound 528] | – | – | Edg-1(S1P1) binding inhibition rate (membrane system binding test) (human Edg-1(S1P1) [1]; test compound 10^-5 M, [33P]-S1P 0.1 nM, 1 hour at 30° C., HEK-293 membrane fraction): 94.0%
CCn1c(OC)nnc1[C@@H](Cc1ccccc1F)NS(=O)(=O)c1ccc(Cl)c(Cl)c1 [Compound 550] | – | 98.6 | –
CCn1c(OCCCN2CCOCC2)nnc1[C@@H](Cc1ccccc1)NS(=O)(=O)c1ccc(Cl)c(Cl)c1 [Compound 538] | – | 103 | –
CCCCCCCCCCCCC/C=C\C(O)C(N)COP(=O)(O)O (centres unmarked) [[^33P]-S1P, reference compound] | – | – | Kd (human Edg-1(S1P1) [1]; radioligand binding, membrane fraction, read-out: Kd of binding to human Edg-1(S1P1) gene transferred HEK-293 cell strain membrane fraction): 0.15 nM
CCn1c(OC)nnc1[C@@H](Cc1ccc(F)cc1)NS(=O)(=O)c1ccc(Cl)c(Cl)c1 [Compound 548] | – | 99.8 | –

SMILES | inhibition at 10 µM (human Edg-1(S1P1) [2]; [4]) [%] | inhibition at 10 µM (human Edg-1(S1P1) [1]; [5]) [%] | other results
CCn1c(OC)nnc1[C@@H](Cc1ccc(F)c(F)c1)NS(=O)(=O)c1ccc(Cl)c(Cl)c1 [Compound 549] | – | 99.7 | –
CCn1c(OC)nnc1[C@@H](Cc1ccccc1)NS(=O)(=O)c1ccc(Cl)c(Cl)c1 [Compound 507] | – | 96.7 | –
CCn1c([C@@H](C)NS(=O)(=O)c2ccc(Cl)c(Cl)c2)nnc1S(C)(=O)=O [Compound 532] | – | 53.8 | –
CCn1c(OC)nnc1[C@@H](Cc1ccc(-c2ccccc2)cc1)NS(=O)(=O)c1ccc(Cl)c(Cl)c1 [Compound 547] | – | 85.4 | –
CCn1c(OC(C)C)nnc1[C@@H](Cc1ccccc1)NS(=O)(=O)c1ccc(Cl)c(Cl)c1 [Compound 537] | – | 101 | –
CCn1c(OC)nnc1[C@@H](C)NS(=O)(=O)c1ccc(C)nc1 [Compound 281] | – | – | inhibition at 10 µM (human Edg-1(S1P1) [1]; [3]): 75.5%
CCn1c(SC)nnc1C(Cc1ccc(C(F)(F)F)cc1)NS(=O)(=O)c1ccc(Cl)c(Cl)c1 (centres unmarked) [Compound 518] | – | 83.5 | –
CCn1c(OC)nnc1[C@@H](C)NS(=O)(=O)c1ccc(OC)cc1 [Compound 508] | – | – | inhibition at 10 µM (human Edg-1(S1P1) [2]; [6]): 100%
CCn1c(OC)nnc1[C@@H](C)NS(=O)(=O)c1ccc(C(C)(C)CC)cc1 [Compound 271] | 89.6 | – | –
CCCOc1nnc([C@@H](Cc2ccc(Cl)c(Cl)c2)NS(=O)(=O)c2ccc(Cl)c(Cl)c2)n1CC [Compound 526] | – | 88.9 | –
C=CCSc1nnc([C@@H](Cc2ccccc2)NS(=O)(=O)c2ccc(Cl)cc2)n1CCOC [Compound 151] | 41.6 | – | –
CCn1c(OC)nnc1[C@@H](C)NS(=O)(=O)c1ccc(-c2cnco2)s1 [Compound 345] | 88.5 | – | –
CCCOc1nnc([C@@H](Cc2ccc(C)cc2)NS(=O)(=O)c2ccc(Cl)c(Cl)c2)n1CC [Compound 525] | – | 98 | –
CCn1c(OCC2CC2)nnc1[C@@H](Cc1ccccc1)NS(=O)(=O)c1ccc(Cl)c(Cl)c1 [Compound 545] | – | 101 | –
CCn1c(SC)nnc1C(Cc1ccc(Cl)c(Cl)c1)NS(=O)(=O)c1ccc(Cl)c(Cl)c1 (centres unmarked) [Compound 524] | – | 75 | –
CCn1c(OC)nnc1[C@@H](C)NS(=O)(=O)c1ccccc1F [Compound 280] | 91 | – | –
C=CCSc1nnc([C@@H](Cc2ccccc2)NS(=O)(=O)c2ccc(Cl)cc2)n1C1CCCC1 [Compound 164] | 40.4 | – | –
C=CCSc1nnc([C@@H](Cc2ccccc2)NS(=O)(=O)c2ccc(Cl)cc2)n1CCCC [Compound 145] | 46 | – | –
CCn1c(OC)nnc1[C@@H](C)NS(=O)(=O)c1ncc(C)s1 [Compound 421] | 71.3 | – | –

SMILES | inhibition at 10 µM (human Edg-1(S1P1) [2]; [4]) [%] | inhibition at 10 µM (human Edg-1(S1P1) [1]; [5]) [%] | other results
CCOc1nnc([C@@H](C)NS(=O)(=O)c2ccc(Cl)cc2)n1C [Compound 540] | – | – | inhibition at 10 µM (human Edg-1(S1P1) [2]; [6]): 96.3%
CCCOc1nnc([C@@H](Cc2ccc(OC)cc2)NS(=O)(=O)c2ccc(Cl)c(Cl)c2)n1CC [Compound 527] | – | 89.7 | –
CCn1c(OC)nnc1[C@@H](C)NS(=O)(=O)c1cccc2nsnc12 [Compound 340] | 77.5 | – | –
CCn1c(OC)nnc1[C@@H](C)NS(=O)(=O)c1nc(C)cs1 [Compound 423] | 59.2 | – | –
CCCOc1nnc([C@@H](Cc2ccccc2)NS(=O)(=O)c2ccc(Cl)c(Cl)c2)n1CC [Compound 529] | – | 100 | –
CCn1c(SC)nnc1C(Cc1ccc(C)cc1)NS(=O)(=O)c1ccc(Cl)c(Cl)c1 (centres unmarked) [Compound 523] | – | 82.5 | –
CCn1c(OC)nnc1[C@@H](C)NS(=O)(=O)c1ccccc1OC(F)(F)F [Compound 276] | 88.9 | – | –
CCn1c(OC2CCC2)nnc1[C@@H](Cc1ccccc1)NS(=O)(=O)c1ccc(Cl)c(Cl)c1 [Compound 531] | – | 100 | –
CCn1c(OC)nnc1[C@@H](C)NS(=O)(=O)c1ccccc1Cl [Compound 194] | 85.6 | – | –
CCn1c(OC)nnc1[C@@H](C)NS(=O)(=O)c1ccc(-c2cnco2)cc1 [Compound 346] | 38.5 | – | –
C=CCSc1nnc([C@@H](Cc2ccccc2)NS(=O)(=O)c2ccc(Cl)cc2)n1CC(C)C [Compound 147] | 75.2 | – | –
CCCn1c(OC)nnc1[C@@H](Cc1ccccc1)NS(=O)(=O)c1ccc(Cl)c(Cl)c1 [Compound 554] | – | 88 | –
CCOc1nnc([C@@H](Cc2ccccc2)NS(=O)(=O)c2ccc(Cl)c(Cl)c2)n1CC [Compound 536] | – | 98.4 | –
C=CCSc1nnc([C@@H](Cc2ccccc2)NS(=O)(=O)c2ccc(Cl)cc2)n1C(C)CC (some centres unmarked) [Compound 149] | 63.4 | – | –
CCn1c(OC)nnc1[C@@H](Cc1cccc(F)c1)NS(=O)(=O)c1ccc(Cl)c(Cl)c1 [Compound 551] | – | 101 | –
CCn1c(OC)nnc1[C@@H](C)NS(=O)(=O)c1ccc(C)cn1 [Compound 424] | 58.7 | – | –
CCn1c(OC)nnc1[C@@H](Cc1cc(F)cc(F)c1)NS(=O)(=O)c1ccc(Cl)c(Cl)c1 [Compound 552] | – | 97.3 | –
CCCOc1nnc([C@H](C)NS(=O)(=O)c2ccc(Cl)cc2)n1CC [Compound 184] | – | – | inhibition at 10 µM (human Edg-1(S1P1) [1]; [3]): 44.4%
CCCCCCCCS(=O)(=O)N[C@H](C)c1nnc(OC)n1CC [Compound 236] | 98.9 | – | –
